Data reported in US20240417397A1 (priority 2021, published 2024).

System: Rice blast fungi (Pyricularia oryzae, MAFF101511)
Assay: microbe, parasite or virus in culture
Type: cell-based
Conditions: 72 h, read-out: Inhibition rate (%) of elongation length of fungal filaments

SMILES: COc1n[nH]c(F)c1C(F)(F)F [Example 2, 3-fluoro-5-methoxy-4-trifluoromethylpyrazole]
- inhibition at 500 ppm: 95%

SMILES: COc1n[nH]c(N2CCC(OC)CC2)c1C(F)(F)F [Example 9, 3-methoxy-5-(4-methoxypiperidin-1-yl)-4-trifluoromethyl-1H-pyrazole]
- inhibition at 500 ppm: 88%
